Consider one molecule from patent US20250049776A1, “AUTOPHAGY INDUCING COMPOUNDS AND USES THEREOF, IN PARTICULAR FOR A SYSTEMIC TREATMENT OF DISEASES AND CONDITIONS” (Samsara Therapeutics Inc., priority 2021, published 2025).

For this experiment, the system named is dopaminergic Tyrosine hydroxylase (TH)-positive neurons injured with MPTP. Kind of experiment: Cellular model of Parkinson's disease (MPTP/MPP+ injury of primary mesencephalic neurons). The note with it: concentrations of 500 μM and 1 μM. It counts as cell-based, Rat. The source says:
This model (run by Neuro-Sys SAS, France) is based on a primary culture of dopaminergic Tyrosine hydroxylase (TH)-positive neurons injured with the dopaminergic neurons-specific toxin (DA-toxin) 1-methyl-4-phenyl-1,2,3,6 tetrahydropyridine (MPTP, a prodrug of MPP*) (Dauer and Przedborski, 2003). Any substances reducing DA-toxin neurotoxicity may be useful as a new therapeutic agent for the treatment or prevention of PD.
Primary culture of mesencephalic neurons: Rat dopaminergic neurons were cultured as described by Visanji et al., 2008 and Callizot et al., 2019. Briefly, pregnant female rat (Wistar) of 15 days of gestation were killed using a deep anesthesia with CO2 chamber and a cervical dislocation. The midbrains obtained from 15-day-old rat embryos (Janvier, France) were dissected under a microscope. The embryonic midbrains will be removed and placed in ice-cold medium of Leibovitz (L15) containing 2% of Penicillin-Streptomycin (PS) and 1% of bovine serum albumin (BSA). The ventral portion of the mesencephalic flexure, a region of the developing brain rich in dopaminergic neurons, was used for the cell preparations.
The midbrains were dissociated by trypsinisation for 20 min at 37° C. (solution at a final concentration of 0.05% trypsin and 0.02% EDTA). The reaction was stopped by the addition of Dulbecco's modified Eagle's medium (DMEM) containing DNAase I grade II (0.5 mg/mL) and 10% of foetal calf serum (FCS). Cells were then mechanically dissociated by 3 passages through a 10 ml pipette. Cells were then centrifuged at 180×g for 10 min at +4° C. on a layer of BSA (3.5%) in L15 medium. The supernatant was discarded and the cell pellets re-suspended in a defined culture medium consisting of Neurobasal supplemented with B27 (2%), L-glutamine (2 mM) and 2% of PS solution and 10 ng/mL of Brain-derived neurotrophic factor (BDNF) and 1 ng/mL of Glial-Derived Neurotrophic Factor (GDNF). Viable cells were counted in a Neubauer cytometer using the trypan blue exclusion test. The cells were seeded at a density of 40,000 cells/well in 96 well-plates (pre-coated with poly-L-lysine) and maintained in a humidified incubator at 37° C. in 5% CO2/95% air atmosphere. Half of the medium was changed every 2 days with fresh medium. The wells of first and last lines and columns […] (to avoid any edge effect) and were be filled with sterile water.
Test compounds and MPTP: • i) Pre-incubation. On day 6 of culture, the test compounds were dissolved in PBS or DMSO and incubated for 1 hour before the MPTP exposure. • ii) Injury. One hour after the application of test compound, MPTP was added to a final concentration of 4 μM, diluted in control medium still in presence of compounds/inhibitors for 48h. Test compounds were tested on one culture in 96-well plate (n=6 culture wells per condition).
Immunostaining: TH and α-Synuclein. 48 Hours after intoxication, the cell culture supernatant was removed, and the cells were fixed by a solution of 4% paraformaldehyde in PBS, pH=7.3 for 20 min at room temperature. The cells were washed twice in PBS, and then permeabilized. Non-specific sites were blocked with a solution of PBS containing 0.1% of saponin and 1% FCS for 15 min at room temperature. The cultures were incubated with: (a) monoclonal anti-Tyrosine Hydroxylase (TH) antibody produced in mouse at dilution of 1/10000 in PBS containing 1% FCS, 0.1% saponin, for 2 hours at room temperature, and (b) polyclonal anti-alpha synuclein (α-synuclein) antibody produced in rabbit at dilution of 1/200 in PBS containing 1% FCS, 0.1% saponin, for 2 h at room temperature.
Automatic computer analysis. For each condition, 20 pictures (representing the whole well area) were automatically taken using ImageXpress® (Molecular Devices) at 10× magnification (20 pictures, for TH and α-synuclein into TH neurons) using the same acquisition parameters. From images, analyses was directly and automatically performed by MetaXpress® (Molecular Devices).

Where a name gives a salt, the structure may show the parent alone.

In the case of `CCCN(C(=O)c1csc(-c2cnn(-c3ccccc3)c2)n1)[C@@H]1CCNC1` [Compound 171, (R)-2-(1-phenyl-1H-pyrazol-4-yl)-N-propyl-N-(pyrrolidin-3-yl)thiazole-4-carboxamide hydrochloride], the “decrease in α-syn area per dopaminergic TH positive neuron compared to MPP+ injury alone” value is listed as greater than 18%, the “increase in the length of the neurite network of dopaminergic TH positive neurons compared to the MPP+ injury alone” value is reported as greater than 31% and the “increase in the number of dopaminergic TH positive neurons compared to MPP+ injury alone” value is reported as greater than 25%.
